Data reported in patent US12447156B2, “Treating progressive familial intrahepatic cholestasis (PFIC) with IBAT inhibitors” (ALBIREO AB, priority 2020, dated 2025).

System: children with PFIC
Test: PEDFIC 1: treatment responders in analysis of pretreatment serum bile acid parameters
Type: in vivo, human
Method: This analysis included children with PFIC aged 0.5-18 years with elevated sBAs and history of significant pruritus who were treated with odevixibat 40 μg/kg/day (n=23) or 120 μg/kg/day (n=19) in […] 1. Pretreatment sBA composition was analyzed using liquid chromatography-tandem mass spectrometry, quantifying serum concentrations of total BAs and primary (cholate, chenodeoxycholate) and secondary (deoxycholate, lithocholate) BAs. sBA concentrations are presented below including and excluding the contribution from ursodeoxycholate (UDCA). Pretreatment serum concentrations of 7α-hydroxy-4-cholesten-3-one (C4) were also quantified. Pretreatment parameters were analysed in treatment responders (Rs; i.e., patients with sBAs≤70 μmol/L or reduced ≥70% and/or a ≥1-point drop in observer-reported pruritus score from baseline to end of treatment) vs nonresponders (NRs).

**Q.** For `CCCCC1(CCCC)CN(c2ccccc2)c2cc(SC)c(OCC(=O)N[C@@H](C(=O)N[C@@H](CC)C(=O)O)c3ccc(O)cc3)cc2S(=O)(=O)N1` [Odevixibat, 1,1-dioxo-3,3-dibutyl-5-phenyl-7-methylthio-8-(N-{(R)-α-[N-((S)-1-carboxypropyl)carbamoyl]-4-hydroxybenzyl}carbamoylmethoxy)-2,3,4,5-tetrahydro-1,2,5-benzothiadiazepine], which “proportion of treatment responders (sBAs ≤70 μmol/L or reduced ≥70% and/or ≥1-point drop in pruritus score)” value (PEDFIC 1, 40 μg/kg/day) is on record?
**A.** 16/23

**Q.** And the “proportion of treatment responders (sBAs ≤70 μmol/L or reduced ≥70% and/or ≥1-point drop in pruritus score)” value (PEDFIC 1, dose groups combined, 24/42)?
**A.** 57%
